Patent US20120308682A1, “RUMINANT FEED, PRODUCTS, AND METHODS COMPRISING BENEFICIAL FATTY ACIDS” (MONSANTO TECHNOLOGY LLC, priority 2009, published 2012)

Tested on: Holstein cows
Test: Milk fatty acid composition after abomasal or ruminal infusion of SDA-enhanced soybean oil in dairy cows (gas chromatography)
Format: in vivo
Conditions: of the SDA present in the abomasally infused oil; range=36.8 to 41.9%
Excerpt: In this Example, transgenic soybean oil containing SDA was either infused directly in the rumen or directly into the abomasum bypassing the rumen to examine the potential of using SDA-enhanced soybean oil to increase the milk fat content of omega-3 fatty acids in dairy cows and to determine the efficiency of SDA uptake from the digestive tract and transfer to milk fat.
Three multiparous, pregnant, rumen-fistulated Holstein cows averaging 267 days in lactation were assigned randomly to a 3×3 Latin square design. Treatments were: 1) control (no oil infusion); 2) abomasal infusion of SDA-enhanced SBO (SDA-abo) and 3) ruminal infusion of SDA-enhanced SBO (SDA-rum). Oil infusions (210 g/d) provided 57 g/d of stearidonic acid and infusion periods were 7 d with a 7 d washout between periods. […]
Cows were milked twice a day with two milk samples obtained at each milking. One milk sample was analyzed for major components (i.e., fat, protein, lactose) by infrared analysis. The second milk sample was analyzed for fatty acids with extraction, methylation and gas chromatographic analysis. Fatty acids were quantified using pure methyl ester standards and a butter oil reference standard was analyzed periodically to monitor column performance and correction factors for individual fatty acids. […]

transfer efficiency of SDA to milk fat: 39.3%
SMILES: CC/C=C\C/C=C\C/C=C\C/C=C\CCCCC(=O)O [SDA, stearidonic acid]
